One assay deals with Stx1B (Stx1 B-subunits) (Bacteriophage H30, UniProt P69178). It is filed as binding, Escherichia coli O157:H7. The settings on record: read-out: Kd of Stx1B for glycan.
The target in the next assay is Stx2B (Stx2 B-subunits) (Escherichia phage 933W, UniProt P09386). It is filed as binding, Escherichia coli O157:H7.
Sequence of Stx2B (Stx2 B-subunits) (P09386 20-89 limits assumed): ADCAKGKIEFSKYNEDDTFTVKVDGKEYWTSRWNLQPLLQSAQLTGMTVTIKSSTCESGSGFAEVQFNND

Sequence of Stx1B (Stx1 B-subunits) (P69178 21-89 limits assumed): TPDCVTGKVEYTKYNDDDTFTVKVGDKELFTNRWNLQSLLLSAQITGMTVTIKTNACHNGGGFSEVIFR

For orientation: Kd means the equilibrium constant for the complex coming apart. In the case of Galα1-4Galβ1-4Glc [Pk], the Kd was 4 ± 0.3 mM on Stx1B (Stx1 B-subunits) and greater than 12 mM on Stx2B (Stx2 B-subunits) (read-out: Kd of Stx2B for glycan). Further, the “binding of Stx2B to glycan” value at Stx2B (Stx2 B-subunits) was “no binding”.

These data come from PMC3278406 (PLoS ONE, 2012).
